The record followed here is patent publication US8729132B2, “Agomelatine hydrobromide hydrate and preparation thereof” (Les Laboratoires Servier, priority 2010, dated 2014).

Where a name gives a salt, the structure may show the parent alone.

What all share (type): physicochemical
Series [1] is described as follows: Water solubility by HPLC, external standard method. The procedure: Using external standard method, the product of example 1 was tested with HPLC, compared with agomelatine crystalline form II.
Series [2] is described as follows: Stability test, incubator at 40° C. for 30 days, HPLC. The method, then: Chromatographic conditions: C18 column; mobile phase: 10 mmol/L phosphate buffer (adjusted to pH 7.0 with NaOH): acetonitrile=2:7 (v/v); column temperature: 40° C.; detection wavelength: 220 nm; internal standard method was used on the products of examples 1 and 2.
Solutions of the products at 1 mg/mL were prepared with the mobile phase. 10 μL of each solution was injected into the liquid chromatograph system and chromatograms were recorded. The results of the purity are shown in examples 1 and 2.
The product of example 1 was placed in an incubator at 40° C. for 30 days to determine its stability with HPLC.

The nature of series [3]: Stability test per Chinese Pharmacopoeia (affecting factors, accelerated, long-term). To be noted: for Water: initial 5.25%; for Br: initial 23.21%; for Purity of agomelatine hydrobromide hydrate: initial value 99.89%. The procedure: The method for stability test as described in Chinese Pharmacopoeia was used in this test. • 1) Affecting factors test (in open container for 10 days): high temperature (60° C.), photostability under strong light ([…]), high humidity (92.5% RH at 25° C.) • 2) Accelerated test (in closed container for 6 months): at 40° C., humidity: 75% RH • 3) Long-term test (in closed container for 9 months): at 25° C., humidity: 60% RH

Where [4] appears, read: Accelerated test: closed container, 6 months, 40° C., 75% RH.
[5] abbreviates: Affecting factors: high humidity (92.5% RH at 25° C.), open container, 10 days.
[6] abbreviates: Affecting factors: high temperature (60° C.), open container, 10 days.
The mark [7] stands for this setting: Affecting factors: strong light (45001x), open container, 10 days.
Where [8] appears, read: Long-term test: closed container, 9 months, 25° C., 60% RH.

For the compound `COc1ccc2cccc(CCNC(C)=O)c2c1` [AG crystalline form II, N-[2-(7-methoxy-1-naphthyl)ethyl]-acetamide, reference compound], the results for the Agomelatine content in series [1] (In 0.1N HCl), in series [1] (In pH 7.0 buffer) and in series [1] (In water) were 0.30 mg/mL, 0.25 mg/mL and 0.26 mg/mL, respectively.
With `COc1ccc2cccc(CCNC(C)=O)c2c1` [AG•HBr•H2O, agomelatine hydrobromide hydrate], the “stability with HPLC (purity)” value is recorded as 99.7% in series [2] (Day 0), 99.7% in series [2] (Day 5), 99.6% in series [2] (Day 10) and 99.6% in series [2] (Day 30). The Agomelatine content in series [1] (In 0.1N HCl, hydrobromide hydrate) turned out to be 0.37 mg/mL; in series [1] (In pH 7.0 buffer, hydrobromide hydrate) it was 0.31 mg/mL; in series [1] (In water, hydrobromide hydrate), 0.33 mg/mL. Also, in series [1] (in water, 0.1N HCl or pH 7.0 buffer), the “solubility compared with agomelatine per se” value is “better solubility than agomelatine per se”. The Water turned out to be 5.41% in series [3] (setting [4]); 5.45% in series [3] (setting [5]); 5.18% in series [3] (setting [6]); 5.22% in series [3] (setting [7]); 5.18% in series [3] (setting [8]). The Br in series [3] (setting [4]) turned out to be 23.07%; in series [3] (setting [5]) it was 23.11%; in series [3] (setting [6]), 21.95%; in series [3] (setting [7]), 22.61%; in series [3] (setting [8]), 22.52%. The “Purity of agomelatine hydrobromide hydrate” value in series [3] (setting [4]) came to 99.83%; in series [3] (setting [5]), 99.83%; in series [3] (setting [6]), 99.87%; in series [3] (setting [7]) it was 99.71%; in series [3] (setting [8]) it was 99.84%. In addition, the “stability (overall conclusion)” value in series [3] (affecting factors, accelerated and long-term tests) was “stable”.
